Where no end group is shown, it is not given here.
T1: G3BP2a NTF2-like domain (G3BP2a 1–139) (Homo sapiens, UniProt Q9UN86)
T1 construct: His6 (thrombin-cleavable) (N, cleaved yes); made in house; host or cells: Escherichia coli BL21(DE3)
T1 sequence (Q9UN86 1-139): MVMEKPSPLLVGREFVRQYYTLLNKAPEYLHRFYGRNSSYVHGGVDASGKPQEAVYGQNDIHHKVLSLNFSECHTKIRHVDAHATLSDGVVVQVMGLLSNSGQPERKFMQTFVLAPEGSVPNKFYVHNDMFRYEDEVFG

T2: FxFG Nup repeat peptide (also: chloride salt)
T2 chain: DSGFSFGSK


Tests used:
[1] = target: T3, human G3BP1 NTF2-like domain (G3BP1 1–139) (Homo sapiens, UniProt Q13283); test: ITC, Nup peptide binding to G3BP1 NTF2-like domain (1–139); settings: 0.1 M NaCl and 0.1 M HEPES, pH 8, 25°C, repeated three times; for heat changes on titration (ITC): titration of peptide into G3BP1 1–139, ITC200, aliquots of 2 µL peptide (5.2 mM)
T3 construct: His6 (thrombin-cleavable) (N, cleaved yes); made in house; host or cells: Escherichia coli BL21(DE3)
Protocol: (§1) The three synthetic peptides, GQSPGFGQGGSV (referred to as FG), DSGGLFGSK (GLFG) and DSGFSFGSK (FxFG), were obtained as more than 98% pure lyophilized chloride salts from Caslo Laboratory ApS, Denmark.
(§2) ITC measurements for the wild type NTF2-like domain were performed with an ITC200 titration calorimeter (MicroCal). Data analysis was done using the Origin software. Protein samples were dialyzed against 0.1 M NaCl and 0.1 M HEPES, pH 8, and passed through 0.22 µm centrifugal filter units (Millipore) before the experiments. Peptides were solubilized in the dialysis buffer and the pH adjusted before filtration. In each experiment, aliquots of 2 µL peptide (5.2 mM) were injected into the sample cell every 180 seconds at 25°C. Background measurements were performed with buffer injected into the protein solution and peptides injected into the buffer solution. The concentrations of the peptides were determined by amino acid analysis (Department of Systems Biology, DTU, Denmark). Experiments were repeated three times and the results given as mean ± standard deviation.

[2] = target: T1, G3BP2a NTF2-like domain (G3BP2a 1–139); test: ITC, Nup peptide binding to G3BP2a NTF2-like domain (1–139); settings: 0.1 M NaCl and 0.1 M HEPES, pH 8, 25°C, repeated three times; for heat changes on titration (ITC): titration of peptide into G3BP2a 1–139 (data not shown), ITC200, aliquots of 2 µL peptide (5.2 mM)
Protocol: as §1, §2

[3] = target: T4, G3BP1 1–139 Phe15Ala mutant (Homo sapiens, UniProt Q13283, F15A); test: ITC, FxFG peptide binding to G3BP1 1–139 Phe15Ala mutant; settings: ITC (VP-ITC), 0.1 M NaCl and 0.1 M HEPES, pH 8, 20°C, aliquots of 15 µL peptide (4.1 mM) every 360 seconds, single experiment
T4 construct: The expression vector for the G3BP1 1–139 Phe15Ala mutant was produced by GenScript Inc. (USA); His6 (thrombin-cleavable) (N, cleaved yes); made in house; host or cells: Escherichia coli BL21(DE3)
Protocol: as §1
Data for the Phe15Ala G3BP1 mutant were collected in a single experiment on a VP-ITC (MicroCal) instrument using buffer conditions as for the wildtype. Aliquots of 15 µL peptide (4.1 mM) were injected into the protein sample every 360 seconds at 20°C.

FxFG Nup repeat peptide = target: T2, FxFG Nup repeat peptide; test: ITC

T3 sequence (Q13283 1-139): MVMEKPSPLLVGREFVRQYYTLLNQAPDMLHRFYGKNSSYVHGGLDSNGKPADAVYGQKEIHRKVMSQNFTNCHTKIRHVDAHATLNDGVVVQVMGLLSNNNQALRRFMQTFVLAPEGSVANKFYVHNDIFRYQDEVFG
T4 sequence (Q13283 1-139 F15A): as the sequence (Q13283 1-139) above, with F15A counted along it

Molecule	heat changes on titration (ITC) [1]	heat changes on titration (ITC) [2]	also measured
DSGGLFGSK [synthetic nucleoporin GLFG repeat peptide, more than 98% pure, from Caslo Laboratory]	did not result in significant heat changes	did not result in significant heat changes	–
DSGFSFGSK [FxFG, DSGFSFGSK]	–	–	Kd ([1]; ITC (ITC200), G3BP1 1–139, aliquots of 2 µL peptide (5.2 mM) every 180 seconds, one-binding-site per chain model, mean ± standard deviation): 115 ± 3 µM; Kd ([2]; ITC (ITC200), G3BP2a NTF2-like domain, aliquots of 2 µL peptide (5.2 mM) every 180 seconds, mean ± standard deviation, data not shown): 114 ± 2 µM; Kd [3]: 670 µM
GQSPGFGQGGSV [synthetic nucleoporin FG repeat peptide, more than 98% pure, from Caslo Laboratory]	did not result in significant heat changes	did not result in significant heat changes	–
G3BP2a NTF2-like domain 1-139 (protein) MVMEKPSPLLVGREFVRQYYTLLNKAPEYLHRFYGRNSSYVHGGVDASGKPQEAVYGQNDIHHKVLSLNFSECHTKIRHVDAHATLSDGVVVQVMGLLSNSGQPERKFMQTFVLAPEGSVPNKFYVHNDMFRYEDEVFG	–	–	Kd (FxFG Nup repeat peptide): 114 µM

Reference: PMC3852005, “Crystal Structures of the Human G3BP1 NTF2-Like Domain Visualize FxFG Nup Repeat Specificity” (PLoS ONE, 2013)
